Reference: patent US20030114445A1, “N3-substituted 6-anilinopyrimidines and methods to treat-Gram-positive bacterial and mycoplasmal infections” (priority 2001, published 2003)
pKi: −log10 of the molar value. Values after ≈ are worked out from the molar mass of the structure shown.

Key:
E. fecium = experiment: Inhibition of bacterial growth on agar plates (MIC); type: cell-based; conditions: 37° C., 24 hours
Description: (§1) Each compound is assayed against a panel of Bacillus, Enterococcus and Staphylococcus, and a Gram-negative bacterium Escherichia coli as negative control, grown in appropriate plate media solidified with 1.3% agar-agar. Stock solutions of the compounds in dimethylsulfoxide or water, depending on solubility, are added to sterile medium at a temperature of 60° C. […] One tenth mL of diluted bacteria containing 500-1000 colony-forming units (CFU) are plated and spread, and the plates incubated at 37° C. for 24 hours. MIC (minimum inhibitory concentration) is equivalent to the lowest concentration at which growth, i.e. colony formation, is not observed.

B. subtilis = experiment: as above; type: cell-based; conditions: Bacillus subtilis, 37° C., 24 hours
Description: as §1

S.aureus (Smith) = experiment: as above; type: cell-based; conditions: Staphylococcus aureus, 37° C., 24 hours
Description: as §1

E. fecalis = experiment: as above; type: cell-based; conditions: 37° C., 24 hours
Description: as §1

B.subtilis pol IIIC = B.subtilis pol IIIC (Bacillus subtilis, UniProt P13267); experiment: biochemical
Description: DNA pol activity was assayed as described in Barnes et al., Nuc. Acids Res., 6:1203-19 (1979), using activated “nicked” calf-thymus DNA as template primer, 10 pM [^3H-methyl]-dTTP as the labelled dNTP substrate, and dATP, dCTP, and dGTP at 25 μM each.
Inhibitory activity of the compounds is determined by measuring the ability of the agent to inhibit enzyme-catalyzed incorporation of [^3H]-dTMP into nicked calf thymus DNA in the absence of the competitor dGTP or dATP (“truncated assay”) (see G. E. Wright and N. C. Brown, Inhibition of Bacillus subtilis DNA Polymerase III by Arylhydrazinopyrimidines: Novel Properties of 2-Thiouracil Derivatives, Biochim. Biophys. Acta 432:37-48 (1976)). Purified pol IIIC is added to a buffered solution containing Mg^2+, DTT, glycerol, nicked calf thymus DNA, saturating concentrations of dATP, dCTP, dTTP and [^3H]-dTTP. Reaction mixtures are incubated at 30° C. for 10 minutes, quenched and filtered, and radioactivity in the acid-insoluble material measured by scintillation counting. Experiments are done in triplicate. Inhibitors are assayed by addition of several dilutions of a stock solution of inhibitor (DMSO or water, depending on solubility) before enzyme addition. […] The truncated assay, i.e. exclusion of the competitive substrate dGTP or dATP, depending upon whether the compound is a uracil derivative or an isocytosine derivative, respectively, allows for the direct determination of apparent inhibitor constants (K,) in this assay system.

Chain of B.subtilis pol IIIC (P13267 whole entry): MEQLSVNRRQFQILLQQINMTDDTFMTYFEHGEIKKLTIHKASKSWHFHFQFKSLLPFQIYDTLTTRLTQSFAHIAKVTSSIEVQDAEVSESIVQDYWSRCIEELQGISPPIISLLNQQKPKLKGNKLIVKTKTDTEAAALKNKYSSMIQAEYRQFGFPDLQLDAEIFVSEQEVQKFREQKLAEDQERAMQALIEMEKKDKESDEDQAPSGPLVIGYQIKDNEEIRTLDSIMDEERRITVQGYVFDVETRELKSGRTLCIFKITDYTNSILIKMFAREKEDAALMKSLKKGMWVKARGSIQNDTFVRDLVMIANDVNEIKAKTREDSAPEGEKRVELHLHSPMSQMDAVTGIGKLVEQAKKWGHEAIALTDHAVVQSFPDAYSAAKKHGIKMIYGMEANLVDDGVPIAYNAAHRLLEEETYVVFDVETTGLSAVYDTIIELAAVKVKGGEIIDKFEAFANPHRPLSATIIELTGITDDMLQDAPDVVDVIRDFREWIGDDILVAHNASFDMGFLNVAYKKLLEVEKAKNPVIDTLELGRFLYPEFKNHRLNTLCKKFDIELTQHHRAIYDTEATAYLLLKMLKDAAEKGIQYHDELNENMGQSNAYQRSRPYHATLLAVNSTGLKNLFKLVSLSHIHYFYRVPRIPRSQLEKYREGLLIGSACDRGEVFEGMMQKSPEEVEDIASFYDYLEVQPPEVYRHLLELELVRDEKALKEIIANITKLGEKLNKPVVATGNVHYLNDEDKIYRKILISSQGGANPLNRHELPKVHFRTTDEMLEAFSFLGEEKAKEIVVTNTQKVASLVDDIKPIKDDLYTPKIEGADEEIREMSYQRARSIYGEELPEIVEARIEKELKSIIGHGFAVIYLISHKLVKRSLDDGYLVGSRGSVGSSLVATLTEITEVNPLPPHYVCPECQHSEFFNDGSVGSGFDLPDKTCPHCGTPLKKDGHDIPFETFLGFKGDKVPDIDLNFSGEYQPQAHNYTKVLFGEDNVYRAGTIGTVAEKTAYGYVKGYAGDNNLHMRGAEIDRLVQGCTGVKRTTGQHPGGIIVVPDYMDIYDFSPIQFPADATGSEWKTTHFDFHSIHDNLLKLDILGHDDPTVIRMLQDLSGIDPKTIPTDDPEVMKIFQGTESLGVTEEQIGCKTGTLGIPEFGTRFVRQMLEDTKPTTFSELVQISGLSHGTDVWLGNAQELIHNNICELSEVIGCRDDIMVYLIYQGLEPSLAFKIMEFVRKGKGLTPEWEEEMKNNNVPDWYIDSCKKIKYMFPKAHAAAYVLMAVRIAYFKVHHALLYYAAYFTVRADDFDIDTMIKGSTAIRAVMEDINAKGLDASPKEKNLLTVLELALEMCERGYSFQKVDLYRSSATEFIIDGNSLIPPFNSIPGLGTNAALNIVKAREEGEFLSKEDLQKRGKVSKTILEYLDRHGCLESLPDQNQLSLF

Row | Structure (SMILES) | MIC (E. fecium) [µg/mL] | MIC (B. subtilis) [µg/mL] | MIC (S.aureus (Smith)) [µg/mL] | MIC (E. fecalis) [µg/mL] | pKi (B.subtilis pol IIIC)
1 | CCc1cc(Nc2cc(=O)n(CCOCCOCc3ccccc3)c(=O)[nH]2)ccc1C [Compound 5, 3-[2-(2-Benzyloxyethoxy)ethyl]-6-(3-ethyl-4-methylanilino)uracil] | 10 (≈ 23.6 µM) | < 1.25 | 5 (≈ 11.8 µM) | 5 (≈ 11.8 µM) | 7.25
2 | CCOC(=O)CCCCn1c(=O)cc(Nc2ccc(C)c(CC)c2)[nH]c1=O [Compound 6, 3-(4-Ethoxycarbonylbutyl)-6-(3-ethyl-4-methylanilino)uracil] | < 1.25 | < 1.25 | 2.5 (≈ 6.69 µM) | 5 (≈ 13.4 µM) | 7.12
3 | CCc1cc(Nc2cc(=O)n(C/C=C/C(=O)OC)c(=O)[nH]2)ccc1C [Compound 7, 3-[3-(Methoxycarbonyl)-2-propenyl]-6-(3-ethyl-4-methylanilino)uracil] | 5 (≈ 14.6 µM) | 2.5 (≈ 7.28 µM) | 10 (≈ 29.1 µM) | 20 (≈ 58.2 µM) | 6.49
4 | CCc1cc(Nc2cc(=O)n(CCCC(C)=O)c(=O)[nH]2)ccc1C [Compound 8, 3-(4-Oxopentyl)-6-(3-ethyl-4-methylanilino)uracil] | 5 (≈ 15.2 µM) | < 1.25 | 5 (≈ 15.2 µM) | 5 (≈ 15.2 µM) | 7.21
5 | CCOC(=O)CCCn1c(=O)cc(Nc2ccc(C)c(CC)c2)[nH]c1=O [Compound 10, 3-[3-(Ethoxycarbonyl)propyl]-6-(3-ethyl-4-methylanilino)uracil] | 2.5 (≈ 6.96 µM) | < 1.25 | 2.5 (≈ 6.96 µM) | 5 (≈ 13.9 µM) | 7.00
6 | CCc1cc(Nc2cc(=O)n(CC(=O)N(CC)CC)c(=O)[nH]2)ccc1C [Compound 11, 3-[(N,N-Diethylaminocarbonyl)methyl]-6-(3-ethyl-4-methylanilino)uracil] | 20 (≈ 55.8 µM) | 2.5 (≈ 6.97 µM) | 10 (≈ 27.9 µM) | 20 (≈ 55.8 µM) | 6.35
7 | CCc1cc(Nc2cc(=O)n(CCOCCOC)c(=O)[nH]2)ccc1C [Compound 12, 3-[2-(2-Methoxyethoxy)ethyl]-6-(3-ethyl-4-methylanilino)uracil] | 5 (≈ 14.4 µM) | 2.5 (≈ 7.2 µM) | 2.5 (≈ 7.2 µM) | 5 (≈ 14.4 µM) | 7.35
8 | CCc1cc(Nc2cc(=O)n(CC#CCO)c(=O)[nH]2)ccc1C [Compound 13, 3-(4-Hydoxy-2-butynyl)-6-(3-ethyl-4-methylanilino)uracil] | 10 (≈ 31.9 µM) | 5 (≈ 16 µM) | 5 (≈ 16 µM) | 10 (≈ 31.9 µM) | 7.17
9 | CCc1cc(Nc2cc(=O)n(CCN(CC)CC)c(=O)[nH]2)ccc1C [Compound 14, 3-[2-(N,N-diethylamino)ethyl]-6-(3-ethyl-4-methylanilino)uracil] | 20 (≈ 58.1 µM) | 10 (≈ 29 µM) | 20 (≈ 58.1 µM) | 20 (≈ 58.1 µM) | 6.28
10 | CCc1cc(Nc2cc(=O)n(CC(C)=O)c(=O)[nH]2)ccc1C [Compound 15, 3-(2-Oxopropyl)-6-(3-ethyl-4-methylanilino)uracil] | 10 (≈ 33.2 µM) | 2.5 (≈ 8.3 µM) | 10 (≈ 33.2 µM) | 20 (≈ 66.4 µM) | 6.52
11 | CCc1cc(Nc2cc(=O)n(CCNS(C)(=O)=O)c(=O)[nH]2)ccc1C [Compound 16, 3-[2-(Methanesulfonylamino)ethyl]-6-(3-ethyl-4-methylanilino)uracil] | 10 (≈ 27.3 µM) | 5 (≈ 13.6 µM) | 10 (≈ 27.3 µM) | 20 (≈ 54.6 µM) | 6.54
12 | CCc1cc(Nc2cc(=O)n(CCN3CCOCC3)c(=O)[nH]2)ccc1C [Compound 17, 3-[2-(N-morpholino)ethyl]-6-(3-ethyl-4-methylanilino)uracil] | 2.5 (≈ 6.97 µM) | < 1.25 | 5 (≈ 13.9 µM) | 5 (≈ 13.9 µM) | 7.05
13 | CCc1cc(Nc2cc(=O)n(CCCCCCCCO)c(=O)[nH]2)ccc1C [Compound 18, 3-(8-Hydroxyoctyl)-6-(3-ethyl-4-methylanilino)uracil] | 2.5 (≈ 6.69 µM) | 1.25 (≈ 3.35 µM) | 2.5 (≈ 6.69 µM) | 2.5 (≈ 6.69 µM) | 7.59
14 | CCc1cc(Nc2cc(=O)n(CCCC#N)c(=O)[nH]2)ccc1C [Compound 19, 3-(3-Cyanopropyl)-6-(3-ethyl-4-methylanilino)uracil] | 5 (≈ 16 µM) | 2.5 (≈ 8 µM) | 2.5 (≈ 8 µM) | 5 (≈ 16 µM) | 6.85
15 | CCc1cc(Nc2cc(=O)n(CCCCC#N)c(=O)[nH]2)ccc1C [Compound 20, 3-(4-Cyanobutyl)-6-(3-ethyl-4-methylanilino)uracil] | 5 (≈ 15.3 µM) | 2.5 (≈ 7.66 µM) | 2.5 (≈ 7.66 µM) | 2.5 (≈ 7.66 µM) | 7.03
16 | CCc1cc(Nc2cc(=O)n(CCOCCOCCO)c(=O)[nH]2)ccc1C [Compound 21, 3-{2-[2-Hydroxyethoxy-(2-ethoxy)]ethyl}-6-(3-ethyl-4-methylanilino)uracil] | 10 (≈ 26.5 µM) | 2.5 (≈ 6.62 µM) | 10 (≈ 26.5 µM) | 10 (≈ 26.5 µM) | 7.06
17 | CCc1cc(Nc2cc(=O)n(CCCCOC(C)=O)c(=O)[nH]2)ccc1C [Compound 22, 3-(4-Acetoxybutyl)-6-(3-ethyl-4-methylanilino)uracil] | 5 (≈ 13.9 µM) | 1.25 (≈ 3.48 µM) | 2.5 (≈ 6.96 µM) | 5 (≈ 13.9 µM) | 7.24
18 | CCc1cc(Nc2cc(=O)n(CCCC(O)CO)c(=O)[nH]2)ccc1C (stereo not shown) [Compound 23, 3-(4,5-Dihydroxypentyl)-6-(3-ethyl-4-methylanilino)uracil] | 20 (≈ 57.6 µM) | 10 (≈ 28.8 µM) | 20 (≈ 57.6 µM) | 20 (≈ 57.6 µM) | 7.02
19 | CCc1cc(Nc2cc(=O)n(CCCN3CCOCC3)c(=O)[nH]2)ccc1C [Compound 24, 3-[3-(N-Morpholino)propyl]-6-(3-ethyl-4-methylanilino)uracil] | 5 (≈ 13.4 µM) | 2.5 (≈ 6.71 µM) | 10 (≈ 26.8 µM) | 10 (≈ 26.8 µM) | 6.96
20 | CCc1cc(Nc2cc(=O)n(CC(C)CO)c(=O)[nH]2)ccc1C (stereo not shown) [Compound 25, 3-(3-Hydroxy-2-methylpropyl)-6-(3-ethyl-4-methylanilino)uracil] | 2.5 (≈ 7.88 µM) | < 1.25 | 5 (≈ 15.8 µM) | 5 (≈ 15.8 µM) | 6.96
21 | CCc1cc(Nc2cc(=O)n(CCCCCCO)c(=O)[nH]2)ccc1C [Compound 27, 3-(6-Hydroxyhexyl)-6-(3-ethyl-4-methylanilino)uracil] | 5 (≈ 14.5 µM) | < 1.25 | 2.5 (≈ 7.24 µM) | 2.5 (≈ 7.24 µM) | 7.31
22 | CCc1cc(Nc2cc(=O)n(CCCC(=O)O)c(=O)[nH]2)ccc1C [Compound 31, 3-(3-Carboxypropyl)-6-(3-ethyl-4-methylanilino)uracil] | 20 (≈ 60.4 µM) | > 20 | 10 (≈ 30.2 µM) | > 20 | 7.24
23 | CCc1cc(Nc2cc(=O)n(C/C=C/CO)c(=O)[nH]2)ccc1C [Compound 32, 3-(4-Hydroxy-2-butenyl)-6-(3-ethyl-4-methylanilino)uracil] | 2.5 (≈ 7.93 µM) | 1.25 (≈ 3.96 µM) | 5 (≈ 15.9 µM) | 5 (≈ 15.9 µM) | 7.29
